# Earlier results in patent US20210393628A1, “COMPOSITIONS AND METHODS FOR MODULATING T CELL EXHAUSTION” (The Board of Trustees of the Leland Stanford Junior …, priority 2018, published 2021).
# Tested on: tonically signaling CAR T cells
# Settings: expanded in the presence of dasatinib
smiles,measurement,value
Cc1nc(Nc2ncc(C(=O)Nc3c(C)cccc3Cl)s2)cc(N2CCN(CCO)CC2)n1 [dasatinib],cytotoxicity,augmented
